{"source": "patent US20170151261A1", "about": "“SKIN WOUND HEALING AND SCAR REDUCTION WITH PROSTAGLANDIN EP4 AGONIST COMBINATIONS” (Allergan, Inc., priority 2012, published 2017)", "target": "EP4 (Homo sapiens, UniProt P35408)", "sequence (P35408 whole entry)": "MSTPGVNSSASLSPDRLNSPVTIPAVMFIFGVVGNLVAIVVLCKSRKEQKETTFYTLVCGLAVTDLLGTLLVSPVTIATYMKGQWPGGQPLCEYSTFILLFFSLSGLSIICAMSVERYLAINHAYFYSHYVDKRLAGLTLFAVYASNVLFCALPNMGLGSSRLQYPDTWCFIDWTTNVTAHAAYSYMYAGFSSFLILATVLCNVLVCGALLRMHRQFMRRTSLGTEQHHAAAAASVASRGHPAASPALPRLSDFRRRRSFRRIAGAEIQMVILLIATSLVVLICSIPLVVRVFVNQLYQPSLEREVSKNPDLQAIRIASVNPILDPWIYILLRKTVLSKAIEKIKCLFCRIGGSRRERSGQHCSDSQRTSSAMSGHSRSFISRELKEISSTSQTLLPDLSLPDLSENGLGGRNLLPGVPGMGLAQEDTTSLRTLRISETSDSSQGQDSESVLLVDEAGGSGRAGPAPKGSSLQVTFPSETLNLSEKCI", "assay": "EP4 binding (Ki / IC50)"}
{"molecule": "CCCCC[C@H](O)c1ccc(N2C(=O)CC[C@@H]2CCCc2ccc(C(=O)O)s2)cc1", "values": [{"measurement": "IC50", "result": "> 10", "unit": "µM"}]}
